Measured values from patent publication US12061202B2, “Compositions and methods for bioluminescent detection using multifunctional probes” (Promega Corporation, priority 2019, dated 2024).

Legend:
Raji target cells = assay: Bispecific T-cell engager (BiTE) target cell lysis, labeled Raji target cells with TALL-104 effector cells; assay type: cell-based; conditions: Raji (1.67 μM Labeling probe); TALL-104 effector 2.5:1; 6 hours at 37° C.
Procedure: BiTEs are a class of artificial bispecific monoclonal antibodies that are investigated for the use as anti-cancer drugs as they are used to direct the T cells' cytotoxic activity to target cells (e.g., cancer cells). As shown, Raji target cells (1.67 μM Labeling probe) and TALL-104 effector cells were co-cultured at 2.5:1 ratio (12,500 effector to 5,000 target) in a 96-well assay plate. Bincyto was titrated at indicated concentrations and assay plate was incubated for 6 hours at 37° C. prior to Nano-Glo® Luciferase Assay Substrate addition. Curves were generated following assay background subtraction as described in above. […] S/B=BiTE/no BiTE. % antibody dependent target cell lysis=100×(RLU [target+ effector+antibody]−RLU [target+ effector])/(RLU [target+ effector+digitonin]−RLU [target+ effector]).

Daudi cells = assay: Antibody dependent cellular cytotoxicity (ADCC), labeled Daudi cells co-cultured with PBMC; assay type: cell-based; conditions: Daudi labeled with 1 μM Labeling Probe; PBMC E:T 20:1; 5 hours at 37° C.
Procedure: As shown in FIGS. 3A-3C, experiments were conducted to test antibody dependent cellular cytotoxicity (ADCC) in Daudi (FIGS. 3A-3B) and SKBR3 (FIG. 3C) cells labeled with the bifunctional probes of the present disclosure. Daudi and SKBR3 cells were labeled with 1 μM and 10 μM Labeling Probe respectively and co-cultured with peripheral blood mononuclear cells (PBMC; Cellular Technologies Limited) at an E:T ratio of 20:1 (100,000 effector to 5,000 target) with indicated antibody titrations for 5 hours at 37° C. prior to Nano-Glo® Luciferase Assay Substrate addition. […] Curves in FIGS. 3B and 3C were generated following assay background subtraction (RLU [Target cells+Effector cells+Detection Components]−RLU [Media+Detection Components]) using a four parametric variable slope algorithm in Prism.

EC50 (Raji target cells) [µM]	Substance	EC50 (Daudi cells) [ng/mL]
5.38	Bincyto: bispecific T-cell engager (BiTE) titrated on Raji target cells with TALL-104 effector cells	–
–	Rituximab: antibody titrated in ADCC assay on Daudi cells	6.8
